According to patent publication US11802120B2, “Fused cyclic urea derivatives as CRHR2 antagonist” (RaQualia Pharma Inc., priority 2018, dated 2023):

The compounds below were run against T1, human CRHR2-alpha (Homo sapiens, UniProt Q13324) (assay: cAMP functional assay for human CRHR2 (LANCE Ultra cAMP, TR-FRET)). Details: CHO-K1 cells expressing human CRHR2-alpha, agonist human urocortin2 at EC80, cAMP; read-out: IC50 against CRHR2.
T1 sequence (Q13324 1-411): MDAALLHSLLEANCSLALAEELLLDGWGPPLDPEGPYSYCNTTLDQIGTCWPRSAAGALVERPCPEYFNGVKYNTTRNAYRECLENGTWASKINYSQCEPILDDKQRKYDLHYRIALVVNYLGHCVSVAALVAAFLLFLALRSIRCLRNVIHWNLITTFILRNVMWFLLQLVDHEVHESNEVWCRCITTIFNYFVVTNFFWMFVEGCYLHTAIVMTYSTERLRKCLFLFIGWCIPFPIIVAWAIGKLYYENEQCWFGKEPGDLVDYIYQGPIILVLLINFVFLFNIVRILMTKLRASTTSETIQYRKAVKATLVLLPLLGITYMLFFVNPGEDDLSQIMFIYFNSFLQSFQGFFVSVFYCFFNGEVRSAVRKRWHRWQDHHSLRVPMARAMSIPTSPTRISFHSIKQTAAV
Format: cell-based
Method in brief: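 CHO-K1 stable lines; 4,000 cells/well; compound 30 min, 25° C; EC80 agonist (human urocortin2 → CRHR2, CRF → CRHR1) 30 min, 25° C; buffer HBSS/0.1% BSA/0.5 mM IBMX/5 mM Hepes pH 7.4; Eu-cAMP tracer + ULight antibody 60 min; TR-FRET read; IC50 from % inhibition curves.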

IC50, < 300 nM:
CNC(=O)c1ccc(-n2c(=O)n(C[C@H]3CC[C@H](NC(=O)c4cc(Cl)cnc4C(F)F)CC3)c3c(F)cccc32)cn1 [Example 548, 5-(3-(((1r,4r)-4-(5-chloro-2-(difluoromethyl)nicotina-mido)cyclohexyl)methyt)-4-fluoro-2-oxo-2,3-dihydro-1H-benzo[d]imidazol-1-yl)-N-methylpicolinamide]
Cc1ncc(Cl)cc1C(=O)N[C@H]1CC[C@H](Cn2c(=O)n(-c3ccnc(N4CCOCC4)c3)c3ccccc32)CC1 [Example 519, 5-chloro-2-methyl-N-((1r,4r)-4-((3-(2-morpholinopyridin-4-yl)-2-oxo-2,3-dihydro-1H-benzo[d]imidazol-1-yl)methyl)cyclohexyl)nicotinamide]
Cc1ncc(Cl)cc1C(=O)N[C@H]1CC[C@H](Cn2c(=O)n(-c3ccc4oc(N)nc4c3)c3ccccc32)CC1 [Example 263, N-((1r,4r)-4-((3-(2-aminobenzo[d]oxazol-5-yl)-2-oxo-2,3-dihydro-1H-benzo[d]imidazol-1-yl)methyl)cyclohexyl)-5-chloro-2-methylnicotinamide]
Cc1n[nH]c2ccc(-n3c(=O)n(C[C@H]4CC[C@H](NC(=O)c5cc(Cl)cnc5C(F)F)CC4)c4cccnc43)cc12 [Example 576, 5-chloro-2-(difluoromethyl)-N-((1r,4r)-4-((3-(3-methyl-1H-indazol-5-yl)-2-oxo-2,3-dihydro-1H-imidazo[4,5-b]pyridin-1-yl)methyl)cyclo-hexyl)nicotinamide]
Cc1ncc(Cl)cc1C(=O)N[C@H]1CC[C@H](Cn2c(=O)n(-c3cccc(-c4cncn4C)c3)c3ccccc32)CC1 [Example 517, 5-chloro-2-methyl-N-((1r,4r)-4-((3-(3-(1-methyl-1H-imidazol-5-yl)phenyl)-2-oxo-2,3-dihydro-1H-benzo[d]imidazol-1-yl)methyl)cyclohexyl)nicotinamide]
CNc1ncc(-n2c(=O)n(C[C@H]3CC[C@H](NC(=O)c4cc(Cl)cnc4C)CC3)c3ccccc32)cc1F [Example 552, 5-chloro-N-((1r,4r)-4-((3-(5-fluoro-6-(methylamino)pyridin-3-yl)-2-oxo-2,3-dihydro-1H-benzo[d]imidazol-1-yl)methyl)cyclohexyl)-2-methylnicotinamide]
Cc1ncc(Cl)cc1C(=O)N[C@H]1CC[C@H](Cn2c(=O)n(-c3ccc4c(cnn4C)c3)c3ccccc32)CC1 [Example 141, 5-chloro-2-methyl-N-((1r,4r)-4-((3-(1-methyl-1H-indazol-5-yl)-2-oxo-2,3-dihydro-1H-benzo [d]imidazol-1-yl)methyl)cyclohexyl)nicotinamide]
COc1ccc(-n2c(=O)n(C[C@H]3CC[C@H](NC(=O)c4cc(Cl)cnc4C(F)F)CC3)c3cccnc32)cc1F [Example 710, 5-chloro-2-(difluoromethyl)-N-((1r,4r)-4-((3-(3-fluoro-4-methoxyphenyl)-2-oxo-2,3-dihydro-1H-imidazo[4,5-b]pyridin-1-yl)methyl)cyclo-hexyl)nicotinamide]
Cc1ncc(Cl)cc1C(=O)N[C@H]1CC[C@H](Cn2c(=O)n(-c3ccc(NCC(F)F)nc3)c3ccccc32)CC1 [Example 437, 5-chloro-N-((1r,4r)-4-((3-(6-((2,2-difluoroethyl)amino)pyridin-3-yl)-2-oxo-2,3-dihydro-1H-benzo[d]imidazol-1-yl)methyl)cyclohexyl)-2-methylnicotinamide]
CNc1cc(C)c(-n2c(=O)n(C[C@H]3CC[C@H](NC(=O)c4cc(Cl)cnc4C(F)(F)F)CC3)c3ccccc32)cn1 [Example 545, 5-chloro-N-((1r,4r)-4-((3-(4-methyl-6-(methylamino)pyridin-3-yl)-2-oxo-2,3-dihydro-1H-benzo[d]imidazol-1-yl)methyl)cyclohexyl)-2-(trifluoromethyl)nicotinamide]
Cc1ncc(Cl)cc1C(=O)N[C@H]1CC[C@H](Cn2c(=O)n(-c3ccc(-n4nccn4)nc3)c3ccccc32)CC1 [Example 512, N-((1r,4r)-4-((3-(6-(2H-1,2,3-triazol-2-yl)pyridin-3-yl)-2-oxo-2,3-dihydro-1H-benzo[d]imidazol-1-yl)methyl)cyclohexyl)-5-chloro-2-methylnicotinamide]
Cc1ncc(Cl)cc1C(=O)N[C@H]1CC[C@H](Cn2c(=O)n(-c3cncc4ccccc34)c3ccccc32)CC1 [Example 338, 5-chloro-N-((1r,4r)-4-((3-(isoquinolin-4-yl)-2-oxo-2,3-dihydro-1H-benzo[d]imidazol-1-yl)methyl)cyclo-hexyl)-2-methylnicotinamide]
Cc1ncc(Cl)cc1C(=O)N[C@H]1CC[C@H](Cn2c(=O)n(-c3ccccc3C(F)(F)F)c3cccnc32)CC1 [Example 257, 5-chloro-2-methyl-N-((1r,4r)-4-((2-oxo-1-(2-(trifluoro-methyl)phenyl)-1H-imidazo [4,5-b]pyridin-3(2H)-yl)methyl)cyclohexyl)nicotinamide]
O=C(N[C@H]1CC[C@H](Cn2c(=O)n(-c3ccccc3Cl)c3ccncc32)CC1)c1cc(Cl)cnc1C(F)F [Example 367, 5-chloro-N-((1r,4r)-4-((1-(2-chlorophenyl)-2-oxo-1H-imidazo[4,5-c]pyridin-3(2H)-yl)methyl)cyclohexyl)-2-(difluoromethyl)nicotinamide]
Cc1c[nH]c2ncc(-n3c(=O)n(C[C@H]4CC[C@H](NC(=O)c5cc(Cl)cnc5C(F)F)CC4)c4ccccc43)cc12 [Example 456, 5-chloro-2-(difluoromethyl)-N-((1r,4r)-4-((3-(3-methyl-1H-pyrrolo[2,3-b]pyridin-5-yl)-2-oxo-2,3-dihydro-1H-benzo[d]imidazol-1-yl)methyl)cyclohexyl)nicotinamide]
Cn1ccc(-c2cc(-n3c(=O)n(C[C@H]4CC[C@H](NC(=O)c5cc(Cl)cnc5C(F)F)CC4)c4ccccc43)ccn2)n1 [Example 702, 5-chloro-2-(difluoromethyl)-N-((1r,4r)-4-((3-(2-(1-methyl-1H-pyrazol-3-yl)pyridin-4-yl)-2-oxo-2,3-dihydro-1H-benzo[d]imidazol-1-yl)methyl)cyclohexyl)nicotinamide]
O=C(N[C@H]1CC[C@H](Cn2c(=O)n(-c3ccc4cccnc4c3)c3ccccc32)CC1)c1cc(Cl)cnc1C(F)F [Example 422, 5-chloro-2-(difluoromethyl)-N-((1r,4r)-4-((2-oxo-3-(quinolin-7-yl)-2,3-dihydro-1H-benzo[d]imidazol-1-yl)methyl)cyclo-hexyl)nicotinamide]
Cc1ncc(Cl)cc1C(=O)N[C@H]1CC[C@H](Cn2c(=O)n(CC(=O)c3ccc(F)cc3F)c3ccccc32)CC1 [Example 12, 5-chloro-N-((1r,4r)-4-((3-(2-(2,4-difluorophenyl)-2-oxoethyl)-2-oxo-2,3-dihydro-1H-benzo[d]imidazol-1-yl)methyl)cyclohexyl)-2-methylnicotinamide]
